We go through one molecule from patent publication US20190218226A1, “PRODRUGS OF ANTICANCER AGENTS INDOTECAN AND INDIMITECAN” (Purdue Research Foundation, priority 2016, published 2019).

One data set relates to SF-539. In words: NCI60 antiproliferative screen, CNS SF-539. Format: cell-based, human. The conditions noted are these: SF-539, 48 h, sulforhodamine B; read-out: Cytotoxicity (GI50) CNS SF-539. A digest of the protocol:
(§1)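 After 48 h with compound at five log-spaced levels from 0.01 to 100 μM, cell growth is quantified by sulforhodamine B optical density. Fifty-percent growth inhibition concentrations are interpolated from control-normalised growth versus log10 dose.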

Another data set concerns UACC-62. In words: NCI60 antiproliferative screen, melanoma UACC-62. Format: cell-based, human. The conditions noted are these: UACC-62, 48 h, sulforhodamine B; read-out: Cytotoxicity (GI50) melanoma UACC-62. A digest of the protocol: as §1
A further data set concerns OVCAR-3. In words: NCI60 antiproliferative screen, ovarian OVCAR-3. Format: cell-based, human. Particulars: OVCAR-3, 48 h, sulforhodamine B; read-out: Cytotoxicity (GI50) Ovarian OVCAR-3. In outline:
as §1

The subject of the next data set is SN12C. Briefly: NCI60 antiproliferative screen, renal SN12C. It counts as cell-based, human. The conditions noted are these: 48 h, sulforhodamine B, read-out: Cytotoxicity (GI50) renal SN12C. A digest of the protocol: as §1
A further data set has as its system MCF-7. Briefly: NCI60 antiproliferative screen, breast MCF-7. It counts as cell-based, human. The conditions noted are these: MCF-7, 48 h, sulforhodamine B; read-out: Cytotoxicity (GI50) breast MCF-7. A digest of the protocol: as §1
Data set [1] relates to all human cancer cell lines successfully tested (NCI60). In words: NCI60 mean graph midpoint for growth inhibition. Format: cell-based. Particulars: all human cancer cell lines successfully tested; ± standard error; read-out: MGM (mean graph midpoint for growth inhibition). A digest of the protocol: as §1

As to `COC(=O)CCC(=O)Oc1cc2c(=O)n(CCCN3CCOCC3)c3c(c2cc1OC)C(=O)c1cc2c(cc1-3)OCO2` [Compound 17, 2-Methoxy-6-(3-morpholinopropyl)-5,12-dioxo-6,12-dihydro-5H-[1,3]dioxolo[4′,5′:5,6]indeno[1,2-c]isoquinolin-3-yl Methyl Succinate], the GI50 with SF-539 is less than 10 nM; with UACC-62, 18 nM; with OVCAR-3, 37 nM; in the data set on SN12C, less than 10 nM; in the data set on MCF-7 it was less than 10 nM. The mean GI50 across NCI60 cell lines (MGM) in data set [1] is 36 ± 18 nM.
